Measurements from article PMC8232621, “Antimicrobial Activity of a Library of Thioxanthones and Their Potential as Efflux Pump Inhibitors” (Pharmaceuticals, 2021).
Read-outs that look alike come from different tables or passages of the source.

Legend:
P-gp = test system: P-gp; design: method as in PMID 22044878; conditions: cited from earlier work
[1] = Cytotoxicity in NIH/3T3 cell line (MTT assay); format: cell-based; conditions: mouse, read-out: IC50 (µM) ± SD, cytotoxicity
Description: Before each cytotoxicity assay using this cell line, cells were seeded in untreated 96-well flat-bottom microtiter plates, following a 4-hour incubation period in a humidified atmosphere (5% CO2, 95% air) at 37 °C [47]. […] Prior to the assay, the cells were seeded for 4 h using 1 × 10^4 cells/well. […] The plates were incubated for 24 h, after which a solution of MTT in PBS was added to each well and incubated for another 4 h. After this, 100 μL of SDS (10% in a 0.01 M HCl solution) was added to each well and incubated overnight at 37 °C. Doxorubicin was used as a positive control. Cell growth was determined in quadruplicate by measuring OD at λ = 540 nm (reference 630 nm) in a Multiscan EX ELISA reader (Thermo Labsystems, Cheshire, WA, USA). […] (2) 100−ODsample−ODmedium control/ODcell control−ODmedium control×100 […]

P-glycoprotein (P-gp) [2] = test: Flow cytometry analysis of P-glycoprotein expression in Caco-2 cells (UIC2-PE antibody); format: cell-based, human; conditions: 20 µM, 24 h
Description: However, the ability of compounds 9–17 to interfere with the fluorescence of the UIC2-PE antibody was assessed first. For this purpose, Caco-2 cells were incubated for 24 h, in the presence or absence of thioxanthone derivatives (20 μM), and subsequently analysed, by flow cytometry, as described for the P-gp expression assay. A remarkable increase in the intracellular fluorescence of cells exposed to compounds 10–13 and 15–17 was observed, making it impossible to assess the effect of these thioxanthone derivatives on P-gp expression. In fact, compounds 15–17 had previously been reported as fluorescent compounds [15] and this characteristic limited some of the studies reported herein. […] Briefly, Caco-2 cells were seeded in 24-well plates at a density of 60,000 cells/cm^2 and exposed, three days after seeding, to a non-cytotoxic concentration of the tested compounds (20 µM). […] The cells were then washed twice with HBSS (+/+), centrifuged (300 g for 5 min, at 4 °C) and kept on ice until analysis. […] The parameter used for comparison was the mean fluorescence intensity (MFI), calculated as a percentage of control cells (0 μM). The cells autofluorescence (unlabelled cells with or without exposure to the tested compounds) was also evaluated to eliminate its potential contribution to the analysed fluorescence signals. […]

P-glycoprotein (P-gp) [3] = molecular target: T1, P-glycoprotein (P-gp) (Homo sapiens, UniProt P08183); test: P-gp transport activity, RHO 123 accumulation in Caco-2 cells in presence of compounds (90 min); format: cell-based; conditions: 20 µM only during the 90 min incubation with RHO 123
T1 construct: P-glycoprotein (P-gp) activity assessed by fluorescence spectroscopy in Caco-2 cells; endogenous in cells; host or cells: Caco-2 cells (ECACC)
T1 sequence (P08183 whole entry): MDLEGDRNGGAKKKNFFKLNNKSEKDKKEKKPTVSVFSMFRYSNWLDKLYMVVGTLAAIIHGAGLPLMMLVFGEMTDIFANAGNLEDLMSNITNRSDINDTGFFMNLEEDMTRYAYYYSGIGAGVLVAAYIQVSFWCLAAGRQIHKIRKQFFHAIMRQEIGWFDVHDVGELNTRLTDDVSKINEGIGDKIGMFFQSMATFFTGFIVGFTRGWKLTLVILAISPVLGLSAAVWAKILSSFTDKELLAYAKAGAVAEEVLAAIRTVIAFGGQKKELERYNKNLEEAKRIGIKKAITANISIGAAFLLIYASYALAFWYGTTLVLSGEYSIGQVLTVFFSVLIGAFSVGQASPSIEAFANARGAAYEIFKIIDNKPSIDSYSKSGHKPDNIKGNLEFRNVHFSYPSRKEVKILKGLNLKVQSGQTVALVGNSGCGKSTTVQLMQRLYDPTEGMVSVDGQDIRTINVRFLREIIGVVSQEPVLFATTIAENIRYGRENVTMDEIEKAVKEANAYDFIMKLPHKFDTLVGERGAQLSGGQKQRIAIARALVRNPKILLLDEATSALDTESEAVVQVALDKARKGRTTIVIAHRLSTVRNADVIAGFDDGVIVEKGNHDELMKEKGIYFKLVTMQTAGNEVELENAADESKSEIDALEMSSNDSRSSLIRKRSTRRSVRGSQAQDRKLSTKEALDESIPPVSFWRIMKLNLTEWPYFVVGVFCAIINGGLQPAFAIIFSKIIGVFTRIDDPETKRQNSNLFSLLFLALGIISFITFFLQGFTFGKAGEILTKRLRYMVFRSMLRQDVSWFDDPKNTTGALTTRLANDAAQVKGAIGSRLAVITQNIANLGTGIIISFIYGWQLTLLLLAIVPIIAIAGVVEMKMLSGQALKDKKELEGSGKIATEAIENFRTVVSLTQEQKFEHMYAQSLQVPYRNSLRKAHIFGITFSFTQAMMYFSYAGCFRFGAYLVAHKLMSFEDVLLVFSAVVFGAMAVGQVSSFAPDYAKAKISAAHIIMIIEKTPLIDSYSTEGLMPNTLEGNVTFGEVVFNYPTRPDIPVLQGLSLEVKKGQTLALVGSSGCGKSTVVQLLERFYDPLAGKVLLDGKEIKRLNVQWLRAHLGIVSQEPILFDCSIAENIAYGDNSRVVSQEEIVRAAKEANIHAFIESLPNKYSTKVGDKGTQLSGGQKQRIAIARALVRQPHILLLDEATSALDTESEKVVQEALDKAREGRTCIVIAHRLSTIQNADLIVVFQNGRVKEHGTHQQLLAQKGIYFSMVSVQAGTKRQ
Description: Concerning the second experimental approach used to evaluate the effects of the compounds in P-gp activity, Caco-2 cells were exposed to thioxanthone derivatives (20 µM) only during the 90 min of incubation with the fluorescent substrate (RHO 123, 10 µM). This experimental approach aims to evaluate the potential immediate effects of thioxanthone derivatives on P-gp activity as a result of a direct inhibition or activation of the protein, i.e., not to change the protein expression. […] In contrast, compounds 12 and 13 caused a significant and immediate decrease in P-gp activity (to 82 and 85%, respectively), when compared to control cells (0 µM).
The effect of the tested compounds on P-gp activity was evaluated using rhodamine 123 (RHO 123) as a P-gp fluorescent substrate, and ZOS as a specific third-generation P-gp inhibitor. Indeed, several studies report the use of RHO 123 accumulation/efflux assays for the direct assessment of P-gp activity through the quantification of the intracellular fluorescence of the P-gp substrate. Caco-2 cells were seeded in 24-well plates at a density of 60,000 cells/cm^2 and, three days after seeding, and submitted to two different protocols of RHO 123 accumulation: 1) RHO 123 accumulation in cells pre-exposed to the compounds (20 µM) for 24 h; 2) RHO 123 accumulation in the presence of the tested compounds (20 µM) for 90 min, as previously described.
On the other hand, in the second protocol, the cells were exposed to the tested compounds 30 min prior to addition of the P-gp fluorescent substrate, RHO 123, and remained in contact with the cells only during the substrate accumulation period, thus aiming to detect immediate effects of the tested compounds on P-gp activity as a result of a direct P-gp activation or inhibition. For that purpose, three days after seeding, the cell culture medium was removed, and the cells submitted to the following procedures:
RHO 123 accumulation under normal conditions (NA): pre-exposure to compounds (20 μM), prepared in HBSS (+/+), for 30 min at 37 °C, followed by incubation with RHO 123 (5 μM) for 90 min, at 37 °C, in a humidified 5% CO2 and 95% O2 air atmosphere. Control cells were only exposed to RHO 123.
RHO 123 accumulation in the presence of the P-gp inhibitor (IA): simultaneous pre-exposure to compounds (20 μM) and ZOS (5 μM), both prepared in HBSS (+/+), for 30 min at 37 °C, followed by incubation with RHO 123 (5 μM) for 90 min, at 37 °C, in a humidified 5% CO2 and 95% O2 air atmosphere. Control cells were only exposed to ZOS and RHO 123.
After the 90 min of incubation with RHO 123, the cells were washed twice with HBSS (-/-) and lysed with 1% Triton™ X100, for 30 min, in the dark, at room temperature. RHO 123 intracellular fluorescence was then measured at excitation/emission wavelengths of 485/528 nm, in a multi-well plate reader (PowerWave-X, BioTek Instruments, VT, USA) and expressed as fluorescence intensity (FI). The ratio between the FI after inhibited RHO 123 accumulation (IA) and the FI of non-inhibited RHO 123 accumulation (NA) was the parameter used for comparison, and the results were expressed as a percentage of control cells (Equation (3)). Given the high autofluorescence of several of the tested compounds at the conditions used to measure RHO 123 fluorescence, only compounds 9, 10, 12, 13, and 14 were able to be tested for their potential immediate effect on P-gp activity. Four independent experiments were performed, in triplicate.

| Structure (SMILES) | IC50 at 24 h ([1]; NIH/3T3 mouse fibroblast cells) [µM] | P-gp activity (control cells 100%) (P-glycoprotein (P-gp) [3]) | further results |
| --- | --- | --- | --- |
| CCCOc1ccc(NCCN(CC)CC)c2c(=O)c3ccccc3sc12 [Compound 2] | – | – | type of P-gp inhibition (P-gp): competitive inhibitor |
| CCCOc1ccc(N2CCCCC2)c2c(=O)c3ccccc3sc12 [Compound 3] | – | – | IC50 at 24 h [1]: > 100 µM |
| CCCOc1ccc(Nc2nc(C)cc(C)n2)c2c(=O)c3ccccc3sc12 [Compound 8, 1-[(4,6-Dimethylpyrimidin-2-yl)amino]-4-propoxy-9H-thioxanthen-9-one] | > 100 | – | – |
| CCCOc1ccc(N2CCNC(=O)C2)c2c(=O)c3ccccc3sc12 [Compound 9, 4-(9-Oxo-4-propoxy-9H-thioxanthen-1-yl)piperazin-2-one] | – | no significant differences | P-gp expression levels (control cells 100%) (P-glycoprotein (P-gp) [2]): no significant differences |
| CCCOc1ccc(NCCO)c2c(=O)c3ccccc3sc12 [Compound 10, 1-[(2-Hydroxyethyl)amino]-4-propoxy-9H-thioxanthen-9-one] | – | no significant differences | – |
| CCCOc1ccc(NS(=O)(=O)c2ccc(C(=O)O)cc2)c2c(=O)c3ccccc3sc12 [Compound 12, 4-[N-(9-Oxo-4-propoxy-9H-thioxanthen-1-yl)sulfamoyl]benzoic acid] | 64.5 ± 4.54 | 82% | – |
| CCCOc1ccc(NS(=O)(=O)c2ccc(N)cc2)c2c(=O)c3ccccc3sc12 [Compound 13, 4-Amino-N-(9-oxo-4-propoxy-9H-thioxanthen-1-yl)benzenesulfonamide] | > 100 | 85% | – |
| CCCOc1ccc(Br)c2c(=O)c3ccccc3sc12 [Compound 14, 1-Bromo-4-propoxy-9H-thioxanthen-9-one] | – | 116% | P-gp expression levels (control cells 100%) (P-glycoprotein (P-gp) [2]): 83% |
| CCCOc1ccc2nc(NCc3ccccc3Cl)nc3c2c1Sc1ccccc1-3 [Compound 17] | > 100 | – | – |
